The target of one experiment is T1, transferrin (Homo sapiens, UniProt P02787).
T1 construct: gene TF; purchased from Sigma Aldrich
Put plainly: fluorescence polarization, direct titration of dye with protein. The format is binding.

In a further experiment the target is T2, human serum albumin (Homo sapiens, UniProt P02768).
T2 construct: gene ALB; purchased human albumin, EMD Millipore (Calbiochem)
Described as above. The format is binding.

T2 sequence (P02768 25-609): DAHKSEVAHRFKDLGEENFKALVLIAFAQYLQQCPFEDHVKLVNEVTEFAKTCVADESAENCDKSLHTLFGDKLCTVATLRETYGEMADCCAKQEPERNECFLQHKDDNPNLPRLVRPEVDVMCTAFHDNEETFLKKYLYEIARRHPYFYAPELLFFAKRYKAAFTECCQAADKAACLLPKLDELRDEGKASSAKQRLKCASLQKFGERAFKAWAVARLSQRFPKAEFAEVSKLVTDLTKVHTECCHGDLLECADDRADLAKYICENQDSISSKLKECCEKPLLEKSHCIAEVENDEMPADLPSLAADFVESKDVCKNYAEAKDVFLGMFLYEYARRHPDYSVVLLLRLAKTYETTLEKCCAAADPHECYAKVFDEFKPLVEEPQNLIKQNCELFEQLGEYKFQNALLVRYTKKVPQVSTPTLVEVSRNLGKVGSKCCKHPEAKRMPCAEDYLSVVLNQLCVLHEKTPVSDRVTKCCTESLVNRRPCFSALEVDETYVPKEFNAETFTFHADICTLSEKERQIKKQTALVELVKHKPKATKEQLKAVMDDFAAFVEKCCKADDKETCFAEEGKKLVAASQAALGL
T1 sequence (P02787 20-698): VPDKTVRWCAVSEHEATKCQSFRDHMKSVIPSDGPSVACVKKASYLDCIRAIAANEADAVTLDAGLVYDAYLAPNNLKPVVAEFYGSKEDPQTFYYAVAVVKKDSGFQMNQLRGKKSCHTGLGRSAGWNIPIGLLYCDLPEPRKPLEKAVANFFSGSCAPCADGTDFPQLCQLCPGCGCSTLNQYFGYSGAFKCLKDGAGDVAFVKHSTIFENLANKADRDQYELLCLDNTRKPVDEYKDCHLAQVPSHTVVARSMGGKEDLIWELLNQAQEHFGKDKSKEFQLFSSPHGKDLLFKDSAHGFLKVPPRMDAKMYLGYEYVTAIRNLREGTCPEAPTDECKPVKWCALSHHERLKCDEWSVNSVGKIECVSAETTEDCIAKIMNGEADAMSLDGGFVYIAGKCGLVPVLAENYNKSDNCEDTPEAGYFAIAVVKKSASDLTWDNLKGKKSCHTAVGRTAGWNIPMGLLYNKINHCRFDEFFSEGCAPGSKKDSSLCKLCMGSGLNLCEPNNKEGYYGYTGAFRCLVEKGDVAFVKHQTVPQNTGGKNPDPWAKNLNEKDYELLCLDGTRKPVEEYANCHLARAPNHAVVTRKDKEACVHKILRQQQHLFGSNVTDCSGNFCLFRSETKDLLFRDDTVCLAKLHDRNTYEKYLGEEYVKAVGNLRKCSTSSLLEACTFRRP

Turning to `N=c1ccc2c(-c3ccc(C(=O)O)cc3C(=O)O)c3ccc(N)c(S(=O)(=O)O)c3oc-2c1S(=O)(=O)O` [Alexa Fluor 488], the Kd (usually the free concentration of one partner at which half of the binding sites on the other are occupied at equilibrium, for simple one-to-one binding) on transferrin was 380 µM; on human serum albumin it was 791 µM.
Taken in the same sequence, the figures for `CN1/C(=C/C=C/C=C/C2=[N+](CCCCCC(=O)O)c3ccccc3C2(C)C)C(C)(C)c2ccccc21` [Cy5] were 46.1 µM and 44.8 µM.
Take `CN1/C(=C/C=C/C=C/C2=[N+](CCCCCC(=O)O)c3ccc(S(=O)(=O)O)cc3C2(C)C)C(C)(C)c2cc(S(=O)(=O)O)ccc21` [sCy5]: the Kd on transferrin was determined as 2020 µM; on human serum albumin, 568 µM.
Taken in the same sequence, the figures for `O=C(O)c1ccccc1-c1c2ccc(=O)cc-2oc2cc(O)ccc12` [fluorescein] were 502 µM and 138 µM.
